The numbers were not newly measured in US20050261210A1, “Nonsense suppressor agents in treatment of cutaneous and gastrointestinal disorders” (priority 2004, published 2005), which cites them from elsewhere.

For data set [1], the system named is termination suppression (readthrough). As to conditions: for levels of termination suppression: in vitro assay, compared with tobramycin.
The subject of data set [2] is dystrophin. The conditions noted are these: cultured muscle cells from mdx mice.
Data set [3] relates to dystrophin. As to conditions: mdx mice, systemic treatment.
In data set [4] the test system is dystrophin. The conditions noted are these: Duchenne muscular dystrophy patients with nonsense mutations.
Data set [5] relates to CFTR. As to conditions: cultured respiratory epithelial cells with CFTR nonsense mutations.
Data set [6] concerns CFTR. The conditions noted are these: transgenic mouse model of nonsense-mutated CFTR.
Data set [7] concerns CFTR. The conditions noted are these: cystic fibrosis patients with CFTR nonsense mutation, application to nasal mucosa.

Entries after “also recorded” stand apart in the source; their conditions may differ. Read-outs that look alike come from different tables or passages of the source.

As to `NCC[C@H](O)C(=O)N[C@@H]1C[C@H](N)[C@@H](O[C@H]2O[C@H](CN)[C@@H](O)[C@H](O)[C@H]2O)[C@H](O)[C@H]1O[C@H]1O[C@H](CO)[C@@H](O)[C@H](N)[C@H]1O` [amikacin], in data set [1] (compared with gentamicin), the level of read-through entry was “higher level of read-through than gentamicin in some contexts”. Also, the “levels of termination suppression” value in data set [1] is “higher than those provided by tobramycin”.

Consider gentamicin, for which the dystrophin level entry with dystrophin [2] was “detectable levels of dystrophin”. Besides, the dystrophin expression entry in the data set with dystrophin [3] is reported as “expression of the protein throughout the animal”; in the data set with dystrophin [4] it was “treatment-dependent expression of dystrophin in some patients; also recorded: lack of response in others”. In addition, in the data set with dystrophin [3] (versus untreated mdx mice), the muscle injury entry is given as “protection against the muscle injury”. For the same compound, the “expression of functional CFTR protein” value with CFTR [5] and with CFTR [6] was “restore expression of functional CFTR protein” in each case. For the same compound, the “functional CFTR protein” value with CFTR [7] is given as “restoration of functional CFTR protein”. Further, in data set [1], the “levels of termination suppression” value is recorded as “higher than those provided by tobramycin”.
